These are literature values, as cited in US20030232784A1, “Hyaluronic acid-associated superoxide dismutase mimics and their use in the treatment of joint pain” (priority 2002, published 2003).

The data set deals with patients with active classical rheumatoid arthritis.

With “Orgotein®: a bovine SOD with a Cu/Zn catalytic site”, under “intraarticular injection, patients with active classical rheumatoid arthritis”, the “effect on rheumatoid arthritis symptoms” value is on record as “ameliorated a number of symptoms”. For the same substance, the immunogenicity entry (reason for removal from the market) is given as “development of immune responses against the bovine enzyme”.
